Measured values reported in patent US6066655A, “4-phenyl-3-substituted 1,4-dihydropyridine esters” (Bayer Aktiengesellschaft, priority 1993, dated 2000).

What was measured:
[1] = tested on: PN 200-110 binding sites in the rat brain; assay: Binding affinity for PN 200-110 (DHP) binding sites in the rat brain; settings: for Selectivity: Ki (Heart) relative to Ki (Brain), rat; for Ki: rat brain, PN 200-110 binding sites
Description: (§1) Binding Assays […] Can. Journ. Physiol. Pharmacol. 65, (1987) 1452. […] This manifests itself, for example, by comparison of the binding affinities for DHP (PN-200 110) binding sites in the rat brain and rat […]., Rutledge, A., Janis, […]., Can. Journ. Physiol. Pharmacol. 65 (1987), 1452].

[2] = molecular target: T1, PN 200-110 binding sites in the rat heart (Rattus norvegicus, UniProt P22002); assay: Binding affinity for PN 200-110 (DHP) binding sites in the rat heart
T1 construct: from tissue; host or cells: rat heart
Description: as §1

T1 sequence (P22002 whole entry, other chains not shown): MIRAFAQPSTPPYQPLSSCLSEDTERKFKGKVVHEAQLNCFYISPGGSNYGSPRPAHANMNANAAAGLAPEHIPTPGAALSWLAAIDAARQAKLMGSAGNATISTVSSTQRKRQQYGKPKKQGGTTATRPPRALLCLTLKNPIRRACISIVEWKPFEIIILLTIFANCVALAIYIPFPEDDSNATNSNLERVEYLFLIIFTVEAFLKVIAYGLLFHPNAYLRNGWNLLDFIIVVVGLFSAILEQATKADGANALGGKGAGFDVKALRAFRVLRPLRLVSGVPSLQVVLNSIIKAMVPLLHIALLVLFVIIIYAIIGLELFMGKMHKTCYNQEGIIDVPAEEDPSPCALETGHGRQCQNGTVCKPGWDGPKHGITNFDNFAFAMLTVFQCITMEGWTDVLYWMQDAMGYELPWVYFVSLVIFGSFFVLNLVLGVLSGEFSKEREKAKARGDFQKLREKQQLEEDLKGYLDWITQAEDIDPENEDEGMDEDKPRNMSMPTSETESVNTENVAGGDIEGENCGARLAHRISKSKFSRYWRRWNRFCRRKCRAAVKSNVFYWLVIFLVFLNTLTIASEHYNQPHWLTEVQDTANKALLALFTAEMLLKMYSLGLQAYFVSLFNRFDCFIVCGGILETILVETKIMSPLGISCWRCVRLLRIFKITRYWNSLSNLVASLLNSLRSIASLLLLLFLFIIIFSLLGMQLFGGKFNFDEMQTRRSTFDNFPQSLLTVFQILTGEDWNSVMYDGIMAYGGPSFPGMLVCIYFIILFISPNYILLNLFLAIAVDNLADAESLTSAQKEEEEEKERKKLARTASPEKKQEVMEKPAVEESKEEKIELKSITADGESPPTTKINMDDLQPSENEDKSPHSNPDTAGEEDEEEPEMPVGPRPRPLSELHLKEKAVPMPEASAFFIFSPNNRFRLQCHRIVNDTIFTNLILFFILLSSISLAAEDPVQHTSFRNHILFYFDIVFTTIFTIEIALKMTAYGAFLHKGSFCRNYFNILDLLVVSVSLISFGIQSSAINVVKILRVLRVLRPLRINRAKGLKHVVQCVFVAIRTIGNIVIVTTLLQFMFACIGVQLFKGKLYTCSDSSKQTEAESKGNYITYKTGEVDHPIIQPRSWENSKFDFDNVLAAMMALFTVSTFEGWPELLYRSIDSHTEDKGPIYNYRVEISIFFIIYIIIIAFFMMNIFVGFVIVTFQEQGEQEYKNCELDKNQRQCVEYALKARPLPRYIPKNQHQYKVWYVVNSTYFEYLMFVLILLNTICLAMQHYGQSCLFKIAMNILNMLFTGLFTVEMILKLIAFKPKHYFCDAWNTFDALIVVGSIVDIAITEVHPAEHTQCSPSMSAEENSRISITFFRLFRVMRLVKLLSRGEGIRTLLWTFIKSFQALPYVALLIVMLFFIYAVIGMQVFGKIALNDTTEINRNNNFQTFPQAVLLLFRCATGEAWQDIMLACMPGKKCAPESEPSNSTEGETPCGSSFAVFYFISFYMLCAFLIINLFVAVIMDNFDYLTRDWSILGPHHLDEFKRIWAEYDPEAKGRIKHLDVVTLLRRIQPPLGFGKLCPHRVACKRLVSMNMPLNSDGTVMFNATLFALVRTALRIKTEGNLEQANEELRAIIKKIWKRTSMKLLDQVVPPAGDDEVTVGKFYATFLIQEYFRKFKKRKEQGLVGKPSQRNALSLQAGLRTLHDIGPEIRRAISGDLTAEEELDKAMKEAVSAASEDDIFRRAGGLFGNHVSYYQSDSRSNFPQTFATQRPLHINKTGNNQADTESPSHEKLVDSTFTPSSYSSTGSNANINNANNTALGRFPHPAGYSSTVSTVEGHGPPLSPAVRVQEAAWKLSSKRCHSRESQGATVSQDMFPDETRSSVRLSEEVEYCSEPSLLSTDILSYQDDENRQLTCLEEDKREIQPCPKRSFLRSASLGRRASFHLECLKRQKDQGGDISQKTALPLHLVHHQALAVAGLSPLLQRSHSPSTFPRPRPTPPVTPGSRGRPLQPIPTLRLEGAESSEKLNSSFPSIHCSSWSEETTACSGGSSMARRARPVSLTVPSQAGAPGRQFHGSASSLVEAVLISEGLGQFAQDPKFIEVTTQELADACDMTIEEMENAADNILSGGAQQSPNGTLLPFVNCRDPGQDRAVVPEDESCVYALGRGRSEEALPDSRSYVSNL
T1 sequence (P54290 25-944 partner limits assumed, other chains not shown): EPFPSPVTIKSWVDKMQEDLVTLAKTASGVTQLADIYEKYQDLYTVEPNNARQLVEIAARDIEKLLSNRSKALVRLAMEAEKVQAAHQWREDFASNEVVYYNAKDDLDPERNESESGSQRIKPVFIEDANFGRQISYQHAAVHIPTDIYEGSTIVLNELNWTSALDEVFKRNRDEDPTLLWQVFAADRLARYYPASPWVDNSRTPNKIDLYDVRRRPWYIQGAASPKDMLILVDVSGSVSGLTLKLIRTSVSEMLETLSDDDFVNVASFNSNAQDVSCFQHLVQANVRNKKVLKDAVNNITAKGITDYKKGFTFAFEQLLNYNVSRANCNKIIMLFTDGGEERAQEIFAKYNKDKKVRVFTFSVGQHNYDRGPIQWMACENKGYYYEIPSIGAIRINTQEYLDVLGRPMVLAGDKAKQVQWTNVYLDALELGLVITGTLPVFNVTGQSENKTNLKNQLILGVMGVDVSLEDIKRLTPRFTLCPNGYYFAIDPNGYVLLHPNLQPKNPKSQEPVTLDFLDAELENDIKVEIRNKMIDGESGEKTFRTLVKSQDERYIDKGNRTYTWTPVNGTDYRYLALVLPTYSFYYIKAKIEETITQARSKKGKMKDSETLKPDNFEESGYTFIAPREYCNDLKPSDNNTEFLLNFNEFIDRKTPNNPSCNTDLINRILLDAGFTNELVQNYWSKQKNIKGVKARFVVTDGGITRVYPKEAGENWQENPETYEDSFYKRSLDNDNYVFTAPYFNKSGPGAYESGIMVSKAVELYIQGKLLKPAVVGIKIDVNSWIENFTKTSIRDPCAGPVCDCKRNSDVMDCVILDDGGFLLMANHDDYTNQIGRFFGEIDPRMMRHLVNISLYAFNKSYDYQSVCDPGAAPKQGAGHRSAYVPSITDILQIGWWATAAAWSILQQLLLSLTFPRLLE
T1 sequence (P54290 945-1091 partner limits assumed, other chains not shown): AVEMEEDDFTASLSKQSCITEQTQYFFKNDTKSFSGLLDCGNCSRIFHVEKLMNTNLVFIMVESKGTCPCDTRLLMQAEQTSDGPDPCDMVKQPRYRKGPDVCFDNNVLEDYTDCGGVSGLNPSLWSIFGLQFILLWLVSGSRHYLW

Row | SMILES | Selectivity [1] | Ki [1] [nM] | Ki [2] [nM]
1 | CO[C@H](COC(=O)C1=C(C)NC(C)=C(C(=O)OC(C)C)C1c1cccc(F)c1F)c1ccccc1 (stereo partly drawn) [Example 21, isopropyl (S)-methoxy-2-phenylethyl 4-(2,3-difluorophenyl)-1,4-dihydro-2,6-dimethylpyridine-3,5-dicarboxylate] | 6.0 | 13 | 78
2 | COC(=O)C1=C(C)NC(C)=C(C(=O)OCCN(C)Cc2ccccc2)C1c1cccc([N+](=O)[O-])c1 (stereo not shown) [Nicardipine, nicardipine] | 0.44 | 32 | 
3 | COCCOC(=O)C1=C(C)NC(C)=C(C(=O)OC(C)C)C1c1cccc([N+](=O)[O-])c1 (stereo not shown) [Nimodipine, nimodipine] | 1.9 | 2.4 | 
